{
  "source": "patent US12076300B2",
  "about": "“Dosage regime with esketamine for treating major depressive disorder” (priority 2019, dated 2024)",
  "key": {"[1]": {"experiment": "Single dose, randomized, open-label, crossover study in healthy volunteers: pharmacokinetics", "conditions": "plasma analyte after single dose esketamine hydrochloride 20 mg oral solution; 15 subjects", "excerpt": "A randomized, open-label 4-way crossover study in 16 healthy male and female subjects was held wherein said subjects were placed in a randomly assigned order and administered esketamine. Each subject was assigned to 1 of 4 treatment sequences according to a randomization code such that 4 subjects were assigned to each treatment sequence. There was a wash-out period of at least 7 days between dosing periods with doses consisting of either oral or intravenous esketamine hydrochloride. The study consisted of an eligibility screening period of 28 days, 4 study periods involving administration of a single dose of esketamine hydrochloride followed by safety assessments with blood sampling for PK purposes up to 72 hours after study drug administration, discharge at 72 hours after study drug administration and a follow-up visit 7-14 days after the last PK blood sample was taken on Day 4."}, "[2]": {"test_system": "human peripheral blood lymphocytes (HPBL)", "protocol": "The clastogenic potential of (S)-norketamine was evaluated in the in vitro mammalian chromosome aberration test using human peripheral blood lymphocytes (HPBL) in both the absence and presence of an induced metabolic activation system (the 9000 g supernatant [S9] microsomal fraction of liver homogenate from rats exposed to phenobarbital/5,6-benzoflavone).\nThe study was conducted in 2 phases, with a preliminary toxicity test used to determine the appropriate concentrations for the definitive chromosomal aberration assay. Water was used as a negative (vehicle) control. In both phases, the cells were treated for 3 and 21 hours in the absence of S9 mix and for 3 hours in the presence of S9 mix. The mitotic index was assessed for all cultures to determine cytotoxicity. Ten concentrations, ranging from 2.62 to 260.16 μg/mL, were evaluated in the preliminary toxicity test."}, "[3]": {"test_system": "healthy male and female subjects", "experiment": "Single dose crossover study in healthy volunteers: treatment-emergent adverse events", "assay_type": "in vivo, human", "conditions": "all treatments, 16 subjects", "excerpt": "A total of 128 TEAEs (treatment-emergent adverse event) were reported by 15 of 16 (94%) subjects of which 79 TEAEs reported by 14 of 16 (88%) subjects were to be related to the study drug. Overall, a total of 14 of 128 TEAEs reported by 4 (25%) subjects were of moderate severity and 114 of 128 TEAEs reported by 15 (94%) subjects were of mild severity. […] The most frequently occurring adverse events (reported more than twice) were headache, dizziness, hypokinesia, feeling abnormal, fatigue, euphoric mood inappropriate affect, nausea and hyperhidrosis. Table 4 presents the frequency of the most frequently reported related TEAEs as a percentage of the subjects that experienced an adverse effect per treatment."}, "[4]": {"experiment": "Pharmacokinetics of 40 mg oral esketamine in MDD participants treated with an antidepressant", "assay_type": "in vivo, human", "conditions": "40 mg oral esketamine hydrochloride once daily for 7 days, 15 MDD subjects", "description": "An 18 subject in patient study to assess the safety, tolerability, and pharmacokinetics of 40 mg oral esketamine in MDD participants currently treated with an antidepressant drug was held. In an, up to, 35 day screening phase, the subjects were assessed for study eligibility and, if needed, washed out from disallowed drugs. During this period, it was also determined whether the subject's current dose of oral antidepressant medication had been stable for at least 4 weeks."}, "male Sprague Dawley rats": {"test_system": "male Sprague Dawley rats", "experiment": "7-day forced swim test", "assay_type": "in vivo", "description": "Groups of, 6-7 week old, male Sprague Dawley rats were administered esketamine by intraperitoneal injection and their behavioral despair assessed by a forced swim test. The animals, in cohorts of 10, were administered either a single dose of 15 mg/kg esketamine, 7 daily doses of either 7.5 or 15 mg/kg esketamine or a vehicle control, and the test performed 30 minutes after dosing. Statistical evaluation was performed using an ordinary One-Way ANOVA, t Test and an Uncorrected Fisher's LSD comparisons test."}, "[5]": {"experiment": "Repeated dose 28 day toxicokinetics", "conditions": "males vs females", "description": "The objective of the study was to assess the potential toxicity, neurobehavioral effects, and toxicokinetics (TK) of esketamine when administered orally, via gavage, to Sprague Dawley rats for 28 days and to evaluate recovery during a 14-day drug-free period. Fifty male and 50 female rats were randomized into 4 groups (15/sex/Groups 1 and 4; 10/sex/Groups 2 and 3). Esketamine was administered via oral gavage once daily for 28 consecutive days to males at 0 (vehicle control), 6, 10 or 30 mg/kg/day and females at 0 (vehicle control), 2, 10 or 20 mg/kg/day in a dose volume of 10 mL/kg. Animals were observed until euthanized and necropsied on Day 29 (10/sex/group) or 43 (5/sex from Groups 1 and 4). Toxicity was evaluated based on mortality, clinical observations, body weights, food consumption, ophthalmology, motor activity, functional observational battery, clinical pathology (clinical chemistry, hematology, coagulation and urinalysis), organ weights, anatomic (macroscopic or microscopic) pathology. Toxicokinetic animals (3/sex/Group 1; 6/sex/Groups 2, 3, and 4) were similarly dosed and bled on Day 1 and during Week 4 for toxicokinetic analysis."}, "[6]": {"test_system": "human peripheral blood lymphocytes (HPBL)", "description": "The clastogenic potential of esketamine was evaluated in the in vitro mammalian chromosome aberration test using human peripheral blood lymphocytes (HPBL) in both the absence and presence of an induced metabolic activation system (the 9000 g supernatant [S9] microsomal fraction of liver homogenate from rats exposed to Aroclor-1254).\nThe study was conducted in 2 phases, with a preliminary toxicity test used to determine the appropriate concentrations for the definitive chromosomal aberration assay. Water was used as a negative (vehicle) control. Toxicity (defined as ≥45% reduction in MI relative to the vehicle control) was evaluated at 9 concentrations, ranging from 0.0238 to 238 μg/ml, after exposure of HPBL to esketamine for 20 hours in the absence of S9 activation, or for 4 hours, either in the presence or absence of S9 activation, followed by a 16-hour recovery period.\nThe definitive chromosome aberration assay evaluated HPBL cells after exposure to esketamine for 20 hours in the absence of S9 activation, or for 4 hours, either in the presence of absence of S9 activation, followed by a 16-hour recovery. Positive controls for chromosomal aberrations in non-activated and S9-activated evaluations, respectively, consisted of mitomycin C (MMC, 0.6 and 0.3 μg/mL for the 4- and 20-hour exposures, respectively) and cyclophosphamide (CP, 2.5, 5, and 7.5 μg/mL). […] Initially, the doses selected for evaluation of chromosomal aberrations were 60, 120, and 238 μg/mL for the non-activated 4- and 20-hour treatment conditions; and 30, 60, and 200 μg/mL for the S9-activated 4-hour treatment condition.", "remark": "listed apart in the source"}, "[7]": {"conditions": "Domino (2010); cited from earlier work"}},
  "data": [
    {"smiles": "N[C@]1(c2ccccc2Cl)CCC[C@H](O)C1=O", "note": "[(2S,6S)-OH-Norketamine, (2S,6S)-2-Amino-2-(2-chlorophenyl)-6-hydroxycyclohexanone]", "values": [
      {"measurement": "t1/2, geometric mean", "setting": "[1]", "result": 7.83, "unit": "h"}
    ]},
    {"smiles": "N[C@]1(c2ccccc2Cl)CCCCC1=O", "note": "[(S)-norketamine, (2S)-2-(2-Chlorophenyl)-2-(amino) cyclohexanone]", "values": [
      {"measurement": "clastogenicity (structural and numerical chromosomal aberrations)", "setting": "[2]", "result": "non-clastogenic"}
    ]},
    {"smiles": "CN[C@]1(c2ccccc2Cl)CCCCC1=O", "note": "[esketamine, (2S)-2-(2-Chlorophenyl)-2-(methylamino) cyclohexanone]", "values": [
      {"measurement": "total number of TEAEs reported", "setting": "[3]", "result": 128},
      {"measurement": "mean esketamine Cmax", "setting": "[4]", "result": 11.82, "unit": "ng/mL"},
      {"measurement": "AUC(0-t)", "setting": "[4]; human, in vivo, read-out: mean esketamine AUC0-t", "result": 35.6, "unit": "ng·h/mL"},
      {"measurement": "antidepressant-like effect, continuous 7-day treatment vs single acute dose", "setting": "male Sprague Dawley rats; same dose levels", "result": "stronger antidepressant-like effect than a single acute dose"},
      {"measurement": "effect on immobility time, acute treated rats", "setting": "male Sprague Dawley rats; single dose of 15 mg/kg intraperitoneal, test 30 minutes after dosing", "result": "42 % of control"},
      {"measurement": "exposure by sex after normalization for dose level differences", "setting": "[5]", "result": "males had lower exposures than females"},
      {"measurement": "Cochran-Armitage test for dose response of structural aberrations", "setting": "[6]", "result": "positive for a dose response"},
      {"measurement": "induction of numerical chromosomal aberrations", "setting": "[6]", "result": "negative"},
      {"measurement": "induction of structural and numerical chromosomal aberrations", "setting": "[6]", "result": "negative"},
      {"measurement": "toxicity (≥45% reduction in MI relative to the vehicle control), preliminary toxicity test", "setting": "[6]", "result": "not observed at any dose"},
      {"measurement": "cytotoxicity (≥45% reduction in mitotic index relative to the vehicle control), definitive assay", "setting": "[6]; non-activated 4- and 20-hour treatment, 30 to 238 μg/ml", "result": "not observed at any esketamine dose"},
      {"measurement": "psychotomimetic side effects compared with (R)-ketamine", "setting": "[7]", "result": "greater undesirable psychotomimetic side effects"}
    ]}
  ]
}
